Test: xn = mol fraction of the nth substance listed
Conditions: 101 kPa, Liquid; for viscosity: Capillary tube (Ostwald / Ubbelohde) method

COC(C)(C)C [2-methoxy-2-methylpropane] + CCCCCCCCCC
Conditions | mass density [kg/m3] | viscosity [mPa·s]
308.15 K, x1 = 0.5005 | 719.62 | –
308.15 K, x1 = 0.6066 | 720.2 | –
308.15 K, x1 = 0.6866 | 720.81 | –
308.15 K, x1 = 0.7973 | 721.85 | –
308.15 K, x1 = 0.8999 | 723.26 | –
308.15 K, x1 = 1 | 724.82 | –
313.15 K, x1 = 0.1016 | – | 0.654
313.15 K, x1 = 0.1019 | 714.7 | –
313.15 K, x1 = 0.2002 | – | 0.614
313.15 K, x1 = 0.2041 | 714.74 | –
313.15 K, x1 = 0.3003 | – | 0.572
313.15 K, x1 = 0.3077 | 714.88 | –
313.15 K, x1 = 0.3999 | 715.03 | –
313.15 K, x1 = 0.4013 | – | 0.531
313.15 K, x1 = 0.4992 | – | 0.491
313.15 K, x1 = 0.5005 | 715.3 | –
313.15 K, x1 = 0.6005 | – | 0.449
313.15 K, x1 = 0.6066 | 715.7 | –
313.15 K, x1 = 0.6866 | 716.18 | –
313.15 K, x1 = 0.7 | – | 0.404
313.15 K, x1 = 0.7973 | 717 | –
313.15 K, x1 = 0.8005 | – | 0.362
313.15 K, x1 = 0.8999 | 718.16 | –
313.15 K, x1 = 1 | 719.42 | –
318.15 K, x1 = 0.1016 | – | 0.614
318.15 K, x1 = 0.1019 | 710.81 | –
318.15 K, x1 = 0.2002 | – | 0.579
318.15 K, x1 = 0.2041 | 710.74 | –
318.15 K, x1 = 0.3003 | – | 0.54
318.15 K, x1 = 0.3077 | 710.78 | –
318.15 K, x1 = 0.3999 | 710.82 | –
318.15 K, x1 = 0.4013 | – | 0.503
318.15 K, x1 = 0.4992 | – | 0.462
318.15 K, x1 = 0.5005 | 710.97 | –
318.15 K, x1 = 0.6005 | – | 0.426
318.15 K, x1 = 0.6066 | 711.2 | –
318.15 K, x1 = 0.6866 | 711.53 | –
318.15 K, x1 = 0.7 | – | 0.383
318.15 K, x1 = 0.7973 | 712.1 | –
318.15 K, x1 = 0.8999 | 713.01 | –
318.15 K, x1 = 1 | 713.96 | –
323.15 K, x1 = 0.1016 | – | 0.577
323.15 K, x1 = 0.1019 | 706.89 | –
323.15 K, x1 = 0.2002 | – | 0.546
323.15 K, x1 = 0.2041 | 706.73 | –
323.15 K, x1 = 0.3003 | – | 0.51
323.15 K, x1 = 0.3077 | 706.65 | –
323.15 K, x1 = 0.3999 | 706.59 | –
323.15 K, x1 = 0.4013 | – | 0.476
323.15 K, x1 = 0.4992 | – | 0.441
323.15 K, x1 = 0.5005 | 706.6 | –
323.15 K, x1 = 0.6005 | – | 0.406
323.15 K, x1 = 0.6066 | 706.67 | –
323.15 K, x1 = 0.6866 | 706.84 | –
323.15 K, x1 = 0.7 | – | 0.365
323.15 K, x1 = 0.7973 | 707.18 | –
323.15 K, x1 = 0.8999 | 707.81 | –
328.15 K, x1 = 0.1016 | – | 0.546
328.15 K, x1 = 0.1019 | 702.96 | –
328.15 K, x1 = 0.2002 | – | 0.517
328.15 K, x1 = 0.2041 | 702.7 | –
328.15 K, x1 = 0.3003 | – | 0.483
328.15 K, x1 = 0.3077 | 702.51 | –
328.15 K, x1 = 0.3999 | 702.33 | –
328.15 K, x1 = 0.4013 | – | 0.451
328.15 K, x1 = 0.4992 | – | 0.418
328.15 K, x1 = 0.5005 | 702.22 | –
328.15 K, x1 = 0.6005 | – | 0.386
328.15 K, x1 = 0.6066 | 702.11 | –
328.15 K, x1 = 0.6866 | 702.11 | –
328.15 K, x1 = 0.7 | – | 0.35
328.15 K, x1 = 0.7973 | 702.19 | –
328.15 K, x1 = 0.8999 | 702.55 | –
333.15 K, x1 = 0.1016 | – | 0.514
333.15 K, x1 = 0.1019 | 699 | –
333.15 K, x1 = 0.2002 | – | 0.489
333.15 K, x1 = 0.2041 | 698.64 | –
333.15 K, x1 = 0.3003 | – | 0.459
333.15 K, x1 = 0.3077 | 698.34 | –
333.15 K, x1 = 0.3999 | 698.05 | –
333.15 K, x1 = 0.4013 | – | 0.432
333.15 K, x1 = 0.4992 | – | 0.399
333.15 K, x1 = 0.5005 | 697.78 | –
333.15 K, x1 = 0.6005 | – | 0.371
333.15 K, x1 = 0.6066 | 697.5 | –
333.15 K, x1 = 0.6866 | 697.32 | –
333.15 K, x1 = 0.7973 | 697.15 | –
338.15 K, x1 = 0.1016 | – | 0.489
338.15 K, x1 = 0.1019 | 695.02 | –
338.15 K, x1 = 0.2002 | – | 0.466
338.15 K, x1 = 0.2041 | 694.56 | –
338.15 K, x1 = 0.3003 | – | 0.438
338.15 K, x1 = 0.3077 | 694.14 | –
338.15 K, x1 = 0.3999 | 693.73 | –
338.15 K, x1 = 0.4013 | – | 0.413
338.15 K, x1 = 0.4992 | – | 0.382
338.15 K, x1 = 0.5005 | 693.31 | –
338.15 K, x1 = 0.6005 | – | 0.359
338.15 K, x1 = 0.6066 | 692.86 | –
338.15 K, x1 = 0.6866 | 692.58 | –
338.15 K, x1 = 0.7973 | 692.06 | –
343.15 K, x1 = 0.1016 | – | 0.466
343.15 K, x1 = 0.1019 | 691.02 | –
343.15 K, x1 = 0.2002 | – | 0.445
343.15 K, x1 = 0.2041 | 690.46 | –
343.15 K, x1 = 0.3003 | – | 0.42
343.15 K, x1 = 0.3077 | 689.92 | –
343.15 K, x1 = 0.3999 | 689.38 | –
343.15 K, x1 = 0.4013 | – | 0.398
343.15 K, x1 = 0.4992 | – | 0.369
343.15 K, x1 = 0.5005 | 688.8 | –
343.15 K, x1 = 0.6066 | 688.18 | –
343.15 K, x1 = 0.6866 | 687.71 | –
343.15 K, x1 = 0.7973 | 686.92 | –
348.15 K, x1 = 0.1016 | – | 0.443
348.15 K, x1 = 0.1019 | 687.01 | –
348.15 K, x1 = 0.2002 | – | 0.424
348.15 K, x1 = 0.2041 | 686.34 | –
348.15 K, x1 = 0.3003 | – | 0.402
348.15 K, x1 = 0.3077 | 685.67 | –
348.15 K, x1 = 0.3999 | 685.01 | –
348.15 K, x1 = 0.4013 | – | 0.383
348.15 K, x1 = 0.5005 | 684.26 | –
348.15 K, x1 = 0.6066 | 683.43 | –
353.15 K, x1 = 0.1016 | – | 0.422
353.15 K, x1 = 0.1019 | 682.96 | –
353.15 K, x1 = 0.2002 | – | 0.406
353.15 K, x1 = 0.2041 | 682.18 | –
353.15 K, x1 = 0.3003 | – | 0.386
353.15 K, x1 = 0.3077 | 681.38 | –
353.15 K, x1 = 0.3999 | 680.59 | –
353.15 K, x1 = 0.4013 | – | 0.372
353.15 K, x1 = 0.5005 | 679.69 | –
353.15 K, x1 = 0.6066 | 678.65 | –
358.15 K, x1 = 0.1016 | – | 0.407
358.15 K, x1 = 0.1019 | 678.89 | –
358.15 K, x1 = 0.2002 | – | 0.388
358.15 K, x1 = 0.2041 | 678 | –
358.15 K, x1 = 0.3003 | – | 0.372
358.15 K, x1 = 0.3077 | 677.06 | –
358.15 K, x1 = 0.3999 | 676.14 | –
363.15 K, x1 = 0.1019 | 674.79 | –
363.15 K, x1 = 0.2041 | 673.78 | –
363.15 K, x1 = 0.3077 | 672.71 | –
363.15 K, x1 = 0.3999 | 671.66 | –

Source: the NIST ThermoML archive (doi:10.1021/je700428f)
